From ChEMBL document CHEMBL3864190, “Discovery of Pyrazolopyrimidine Derivatives as Novel Dual Inhibitors of BTK and PI3Kδ” (ACS Med Chem Lett, 2016)

What was measured:
[1] = biological target: Tyrosine-protein kinase BTK (Homo sapiens, UniProt Q06187); settings: at 100 nM
[2] = biological target: T1, Phosphatidylinositol 4,5-bisphosphate 3-kinase catalytic subunit delta isoform (Homo sapiens) (UniProt O00329); assay: Inhibition of PI3Kdelta (unknown origin) using biotinylated PIP2 as substrate at 100 nM in presence of streptavidin-APC by FRET assay
T1 sequence (whole entry): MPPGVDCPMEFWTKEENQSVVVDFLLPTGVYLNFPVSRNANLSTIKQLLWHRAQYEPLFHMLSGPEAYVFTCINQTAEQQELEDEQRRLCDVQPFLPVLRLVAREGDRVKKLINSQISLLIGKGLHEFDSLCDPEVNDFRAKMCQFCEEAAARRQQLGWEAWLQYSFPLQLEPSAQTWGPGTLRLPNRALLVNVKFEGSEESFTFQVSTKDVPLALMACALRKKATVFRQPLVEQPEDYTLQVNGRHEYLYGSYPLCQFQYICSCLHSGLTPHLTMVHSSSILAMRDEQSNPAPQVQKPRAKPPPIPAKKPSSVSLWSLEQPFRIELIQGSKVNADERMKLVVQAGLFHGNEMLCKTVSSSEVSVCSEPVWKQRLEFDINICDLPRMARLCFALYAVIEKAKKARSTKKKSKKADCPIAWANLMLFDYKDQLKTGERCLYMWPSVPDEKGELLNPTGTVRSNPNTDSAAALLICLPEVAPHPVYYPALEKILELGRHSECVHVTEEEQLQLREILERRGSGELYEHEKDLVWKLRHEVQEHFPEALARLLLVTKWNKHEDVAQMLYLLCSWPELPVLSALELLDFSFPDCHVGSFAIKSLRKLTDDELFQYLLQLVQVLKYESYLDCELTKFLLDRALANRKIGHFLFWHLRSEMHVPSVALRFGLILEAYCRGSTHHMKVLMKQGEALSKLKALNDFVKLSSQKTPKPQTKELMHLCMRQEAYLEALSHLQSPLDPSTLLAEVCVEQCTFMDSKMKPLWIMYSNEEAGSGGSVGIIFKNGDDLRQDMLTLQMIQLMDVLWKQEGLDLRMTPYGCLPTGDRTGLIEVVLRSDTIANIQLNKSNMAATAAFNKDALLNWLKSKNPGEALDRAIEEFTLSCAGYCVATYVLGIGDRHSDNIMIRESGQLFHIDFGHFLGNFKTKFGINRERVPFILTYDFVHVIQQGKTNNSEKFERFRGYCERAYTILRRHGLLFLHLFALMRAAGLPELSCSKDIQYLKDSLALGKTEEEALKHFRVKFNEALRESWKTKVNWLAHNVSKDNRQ

[3] = species on record: Homo sapiens; assay: Selectivity ratio of IC50 for PI3Kgamma (unknown origin) to IC50 for PI3Kdelta (unknown origin)
[4] = species on record: Homo sapiens; assay: Selectivity ratio of IC50 for human BMX to IC50 for human BTK
[5] = species on record: Homo sapiens; assay: Selectivity ratio of IC50 for human TEC to IC50 for human BTK
[6] = species on record: Homo sapiens; assay: Selectivity ratio of IC50 for PI3Kbeta (unknown origin) to IC50 for PI3Kdelta (unknown origin)
[7] = species on record: Homo sapiens; assay: Selectivity ratio of IC50 for PI3Kalpha (unknown origin) to IC50 for PI3Kdelta (unknown origin)
[8] = Half life in mouse plasma at 15 mg/kg, po by HPLC/MS analysis; type: ADME, organism-based
[9] = Oral bioavailability in mouse plasma at 15 mg/kg by HPLC/MS analysis; type: ADME, organism-based
[10] = Drug metabolism in mouse liver microsomes assessed as compound oxidation by measuring parent compound remaining at 1 uM after 30 mins in presence of NADPH by LC-MS/MS analysis; type: ADME; settings: liver microsomes, read-out: Stability
[11] = AUC in mouse plasma at 15 mg/kg, po by HPLC/MS analysis; type: ADME, organism-based
[12] = Drug metabolism in human liver microsomes assessed as UGT-mediated compound glucuronidation by measuring parent compound remaining at 5 uM after 30 mins in presence of UDPGA by LC-MS/MS analysis; type: ADME; settings: read-out: Stability
[13] = Drug metabolism in human liver microsomes assessed as compound oxidation by measuring parent compound remaining at 1 uM after 30 mins in presence of NADPH by LC-MS/MS analysis; type: ADME; settings: liver microsomes, read-out: Stability
[14] = Apparent volume of distribution in mouse plasma at 5 mg/kg, iv or 15 mg/kg, po by HPLC/MS analysis; type: ADME, organism-based; settings: read-out: Vz
[15] = Drug metabolism in mouse liver microsomes assessed as UGT-mediated compound glucuronidation by measuring parent compound remaining at 5 uM after 30 mins in presence of UDPGA by LC-MS/MS analysis; type: ADME; settings: liver microsomes, read-out: Stability
[16] = Clearance in mouse plasma at 5 mg/kg, iv or 15 mg/kg, po by HPLC/MS analysis; type: ADME, organism-based
[17] = biological target: T2, Phosphatidylinositol 4,5-bisphosphate 3-kinase catalytic subunit delta isoform (Homo sapiens, UniProt O00329); assay: Inhibition of PI3Kdelta (unknown origin) using biotinylated PIP2 as substrate in presence of streptavidin-APC by FRET assay
T2 sequence (O00329 whole entry): T1 sequence (whole entry)

Chain of Tyrosine-protein kinase BTK (Q06187 whole entry, canonical isoform): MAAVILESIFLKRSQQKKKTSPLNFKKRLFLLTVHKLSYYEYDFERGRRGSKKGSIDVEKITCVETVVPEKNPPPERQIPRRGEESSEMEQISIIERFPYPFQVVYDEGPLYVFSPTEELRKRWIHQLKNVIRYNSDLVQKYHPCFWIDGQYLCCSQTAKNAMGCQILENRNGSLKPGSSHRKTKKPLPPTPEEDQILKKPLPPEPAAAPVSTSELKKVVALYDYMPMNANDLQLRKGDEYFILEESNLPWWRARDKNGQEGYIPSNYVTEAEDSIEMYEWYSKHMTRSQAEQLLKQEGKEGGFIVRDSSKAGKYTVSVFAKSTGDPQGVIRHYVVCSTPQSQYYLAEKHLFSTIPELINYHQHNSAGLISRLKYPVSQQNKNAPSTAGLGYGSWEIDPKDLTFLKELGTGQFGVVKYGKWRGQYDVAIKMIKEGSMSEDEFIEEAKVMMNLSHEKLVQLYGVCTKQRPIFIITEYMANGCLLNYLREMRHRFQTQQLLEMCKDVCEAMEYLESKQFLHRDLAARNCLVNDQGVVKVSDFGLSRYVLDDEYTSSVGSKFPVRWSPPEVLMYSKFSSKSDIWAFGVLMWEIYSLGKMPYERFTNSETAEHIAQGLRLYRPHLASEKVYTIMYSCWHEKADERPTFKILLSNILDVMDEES

## Nc1ncnc2c1c(-c1ccc3nc[nH]c3c1)nn2C1Cc2ccccc2C1
[1]
  inhibition: 9.6%
[2]
  inhibition: 78%

## Nc1ccc2c(c1)CC(n1nc(-c3cc(F)c4c(c3)NCCO4)c3c(N)ncnc31)C2 (single isomer, unassigned; (-))
[3]
  Ratio IC50: 7
[4]
  Ratio IC50: 1
[5]
  Ratio IC50: 7
[6]
  Ratio IC50: 44
[7]
  Ratio IC50: 17

## COc1ccc(-c2nn(C3Cc4ccccc4C3)c3ncnc(N)c23)cc1O
[8]
  half-life: 378 min
[9]
  bioavailability: 11%
[10]
  remaining at 0.5 h, 1 µM: 14%
[11]
  AUC: 2.37 µM·h
[12]
  remaining at 0.5 h, 5 µM: 7%
[13]
  remaining at 0.5 h, 1 µM: 52%
[14]
  Vd: 6.56 L/kg
[15]
  remaining at 0.5 h, 5 µM: 12%
[16]
  clearance: 31.2 mL/min/kg

## Nc1ncnc2c1c(-c1cc(F)c3c(c1)NCCO3)nn2C1CCc2ccccc2C1 (racemic)
[1]
  inhibition: 34%
[2]
  inhibition: 52%

## Nc1ncnc2c1c(-c1ccc3cc[nH]c3c1)nn2C1Cc2ccccc2C1
[1]
  inhibition: 46%
[2]
  inhibition: 24%

## Nc1ncnc2c1c(-c1cc(O)cc(F)c1)nn2C1Cc2ccccc2C1
[8]
  half-life: 186 min
[9]
  bioavailability: 2.2%
[10]
  remaining at 0.5 h, 1 µM: 25%
[11]
  AUC: 0.177 µM·h
[12]
  remaining at 0.5 h, 5 µM: 1.3%
[13]
  remaining at 0.5 h, 1 µM: 67%
[17]
  IC50: 8 nM
[14]
  Vd: 6.01 L/kg
[15]
  remaining at 0.5 h, 5 µM: < 1%
[16]
  clearance: 85 mL/min/kg

## Nc1ncnc2c1c(-c1cc(O)cc(Cl)c1)nn2C1Cc2ccccc2C1
[8]
  half-life: 36 min
[9]
  bioavailability: 0.8%
[11]
  AUC: 0.033 µM·h
[17]
  IC50: 4 nM
[14]
  Vd: 11.5 L/kg
[16]
  clearance: 156 mL/min/kg

## Nc1ncnc2c1c(-c1cccc(O)c1)nn2C1Cc2ccccc2C1
[1]
  inhibition: 66%
[2]
  inhibition: 41%

## Nc1ncnc2c1c(-c1cc(O)c(F)c(F)c1)nn2C1Cc2ccccc2C1
[8]
  half-life: 57 min
[9]
  bioavailability: 1.7%
[10]
  remaining at 0.5 h, 1 µM: 78%
[11]
  AUC: 0.073 µM·h
[12]
  remaining at 0.5 h, 5 µM: 3.7%
[13]
  remaining at 0.5 h, 1 µM: 75%
[1]
  inhibition: 74%
[17]
  IC50: 3 nM
[14]
  Vd: 12.1 L/kg
[2]
  inhibition: 87%
[15]
  remaining at 0.5 h, 5 µM: 5.1 to 7.1%
[16]
  clearance: 154 mL/min/kg

## Nc1ncnc2c1c(-c1ccc3c(c1)NCCO3)nn2C1Cc2ccccc2C1
[1]
  inhibition: 57%
[2]
  inhibition: 40%
[15]
  remaining at 0.5 h, 5 µM: 98%

## Nc1ccc2c(c1)CC(n1nc(-c3cc(F)c4c(c3)NCCO4)c3c(N)ncnc31)C2 (stereo in doubt; (+)-32)
[3]
  Ratio IC50: 2
[4]
  Ratio IC50: 4
[5]
  Ratio IC50: 20
[6]
  Ratio IC50: 34
[7]
  Ratio IC50: 6

## Nc1cc(-c2nn(C3Cc4ccccc4C3)c3ncnc(N)c23)cc(F)c1F
[1]
  inhibition: 63%
[2]
  inhibition: 26%
[15]
  remaining at 0.5 h, 5 µM: 97%

## Nc1ncnc2c1c(-c1ccc(F)c(O)c1)nn2C1Cc2ccccc2C1
[8]
  half-life: 48 min
[9]
  bioavailability: 3.7%
[11]
  AUC: 0.211 µM·h
[14]
  Vd: 5.45 L/kg
[16]
  clearance: 122 mL/min/kg
